Results taken from patent US8153431B2, “Compositions and methods for making mutations in cell lines and animals” (ABT Holding Company, priority 2001, dated 2012).

Columns and labels:
Jurkat cells = test: Cell survival after ENU treatment (limiting dilution); format: cell-based, human; conditions: 2 hours, with 10 uM O-6-BG
Source text: (§1) The ability to identify all genetic mutations that can create a phenotype requires that large numbers of mutations be created in as few cells as possible, and the high efficiency of ENU chemical mutagenesis is suited to this task. We set out to determine the ENU treatment needed to create 50-100 cell libraries in which all genes are mutated at least once (defined as a 1× knockout library) in Jurkat cells. To characterize the mutagenesis we measured both cell survival and the mutation rate in characterizing the optimal ENU treatment (Table I). Survival was determined by limiting dilution, and the mutation rate was estimated in the population of surviving clones based on the frequency of knocking out the single copy HPRT gene (assayed by the survival of such HPRT^− cells upon culture in the presence of 6-thioguanine). As shown in the table below, at an ENU dose of 0.2 mg/ml the mutation rate is 0.02 HPRT^− genes/cell and the 1× library size is therefore ˜50 cells. Creation of libraries of these densely mutagenized cells provides a genetically sensitized background in which small increments of further mutagenesis can create phenotypes by knocking out the sole remaining wild type alleles of ENU-mutated genes.
• Jurkat cells were treated with 10 uM O-6-BG (Sigma) at 5×10^5 cells/ml for 16 hours at 37° C. in a humidified incubator with 5% CO2. The pretreated cells were then incubated with desired concentration of ENU (Sigma) in the presence of O-6-BG for 2 hours at 37° C. with constant shaking. At the end of incubation cells were washed with 10-volume 1×PBS three times and resuspended in complete media with 10 uM O-6-BG. 24 hours later O-6-BG was washed off, cells were resuspended in complete media and seeded onto 96-well plate at 20 cells per well or 400-2000 cells per well. Cells were then cultured for 10 days. Viability is determined by the lower density seeding based on number of wells containing growing colonies. To determine mutation frequency, cells seeded at the higher density were used to select for Hprt-loss of function mutants in the presence of 40 uM 6-TG (Sigma). Number of wells containing growing colonies in the presence of 6-TG was scored 7-10 days later. Mutation frequency is calculated as # of 6-TG resistant colony divided by # of viable cells seeded.

single copy HPRT gene = test: Mutation rate by knockout of single copy HPRT gene (6-thioguanine selection) in Jurkat cells; format: cell-based, human
Source text: as §1, with “As shown in the table below, at an ENU dose of 0.2 mg/ml the mutation rate is 0.02 HPRT^− genes/cell and the 1× library size is therefore ˜50 cells. Creation of libraries of these densely mutagenized cells provides a genetically sensitized background in which small increments of further mutagenesis can create phenotypes by knocking out the sole remaining wild type alleles of ENU-mutated genes.” left out
• Jurkat cells were treated with 10 uM O-6-BG (Sigma) at 5×10^5 cells/ml for 16 hours at 37° C. in a humidified incubator with 5% CO2. […] Viability is determined by the lower density seeding based on number of wells containing growing colonies. […] Number of wells containing growing colonies in the presence of 6-TG was scored 7-10 days later. Mutation frequency is calculated as # of 6-TG resistant colony divided by # of viable cells seeded.

## CCN(N=O)C(N)=O [ENU, N-ethyl-N-nitrosourea]
Jurkat cells; ENU 0.1 mg/ml
  % survival: 1.83%
Jurkat cells; ENU 0.125 mg/ml
  % survival: 0.93%
Jurkat cells; ENU 0.15 mg/ml
  % survival: 1.08%
Jurkat cells; ENU 0.175 mg/ml
  % survival: 0.88%
Jurkat cells; ENU 0.2 mg/ml
  % survival: 0.29%
Jurkat cells; ENU 0.25 mg/ml
  % survival: 0.07%
Single copy HPRT gene; ENU dose of 0.2 mg/ml, Jurkat
  mutation rate: 0.02 HPRT^− genes/cell
Single copy HPRT gene; Jurkat clones after 0.2 mg/ml ENU mutagenesis
  genes in each cell with knockout in one copy: 1-3%
